Source: publication PMC9133015 (Nature Communications, 2022)
Several values for one entry are separate records, joined by “and”; a condition that tells them apart may be missing. Equal entries are not always repeated. Where two headings read alike, the source gives them in different places.

Experiments:
Experiment in all cases: Kinase inhibitor specificity profiling (Reaction Biology Corporation)
Assay type in all cases: biochemical
Set-up in all cases: % Enzyme Activity (relative to DMSO controls): concentration or dose not given beside the values
[1] = molecular target: T1, panel of 370 protein kinases (Homo sapiens, UniProt O14578); conditions: kinase STK21/CIT
T1 construct: purchased Reaction Biology Corporation (assay service)

[2] = molecular target: T2, panel of 370 protein kinases (Homo sapiens, UniProt O95835); conditions: 2 h, kinase LATS1; read-out: % Enzyme Activity (relative to DMSO controls)
T2 construct: purchased Reaction Biology Corporation (assay service)

[3] = molecular target: T3, panel of 370 protein kinases (Homo sapiens, UniProt O96017); conditions: 2 h, kinase CHK2; read-out: % Enzyme Activity (relative to DMSO controls)
T3 construct: purchased Reaction Biology Corporation (assay service)

[4] = molecular target: T4, panel of 370 protein kinases (Homo sapiens, UniProt P05771); conditions: 2 h, kinase PKCb1; read-out: % Enzyme Activity (relative to DMSO controls)
T4 construct: purchased Reaction Biology Corporation (assay service)

[5] = molecular target: T5, panel of 370 protein kinases (Homo sapiens, UniProt P16234); conditions: 2 h, kinase PDGFRa; read-out: % Enzyme Activity (relative to DMSO controls)
T5 construct: purchased Reaction Biology Corporation (assay service)

[6] = molecular target: T6, panel of 370 protein kinases (Homo sapiens, UniProt P17252); conditions: 2 h, kinase PKCa; read-out: % Enzyme Activity (relative to DMSO controls)
T6 construct: purchased Reaction Biology Corporation (assay service)

[7] = molecular target: T7, panel of 370 protein kinases (Homo sapiens, UniProt P35916); conditions: 2 h, kinase FLT4/VEGFR3; read-out: % Enzyme Activity (relative to DMSO controls)
T7 construct: purchased Reaction Biology Corporation (assay service)

[8] = molecular target: T8, panel of 370 protein kinases (Homo sapiens, UniProt P42679); conditions: 2 h, kinase CTK/MATK; read-out: % Enzyme Activity (relative to DMSO controls)
T8 construct: purchased Reaction Biology Corporation (assay service)

[9] = molecular target: T9, panel of 370 protein kinases (Homo sapiens, UniProt P50750); conditions: 2 h, read-out: % Enzyme Activity (relative to DMSO controls)
T9 construct: purchased Reaction Biology Corporation (assay service)

[10] = molecular target: T10, panel of 370 protein kinases (Homo sapiens, UniProt P57078); conditions: 2 h, kinase RIPK4; read-out: % Enzyme Activity (relative to DMSO controls)
T10 construct: purchased Reaction Biology Corporation (assay service)

[11] = molecular target: T11, panel of 370 protein kinases (Homo sapiens, UniProt P78362); conditions: 2 h, kinase SRPK2; read-out: % Enzyme Activity (relative to DMSO controls)
T11 construct: purchased Reaction Biology Corporation (assay service)

[12] = molecular target: T12, panel of 370 protein kinases (Homo sapiens, UniProt Q04912); conditions: 2 h, kinase RON/MST1R; read-out: % Enzyme Activity (relative to DMSO controls)
T12 construct: purchased Reaction Biology Corporation (assay service)

[13] = molecular target: T13, panel of 370 protein kinases (Homo sapiens, UniProt Q05655); conditions: 2 h, kinase PKCd; read-out: % Enzyme Activity (relative to DMSO controls)
T13 construct: purchased Reaction Biology Corporation (assay service)

[14] = molecular target: T14, panel of 370 protein kinases (Homo sapiens, UniProt Q13976); conditions: 2 h, kinase PKG1a; read-out: % Enzyme Activity (relative to DMSO controls)
T14 construct: purchased Reaction Biology Corporation (assay service)

[15] = molecular target: T15, panel of 370 protein kinases (Homo sapiens, UniProt Q16539); conditions: kinase P38a/MAPK14
T15 construct: purchased Reaction Biology Corporation (assay service)

[16] = molecular target: T16, panel of 370 protein kinases (Homo sapiens, UniProt Q52WX2); conditions: 2 h, kinase SBK1; read-out: % Enzyme Activity (relative to DMSO controls)
T16 construct: purchased Reaction Biology Corporation (assay service)

[17] = molecular target: T17, panel of 370 protein kinases (Homo sapiens, UniProt Q9BWU1); conditions: kinase CDK19/cyclin C
T17 construct: purchased Reaction Biology Corporation (assay service)

[18] = molecular target: T18, panel of 370 protein kinases (Homo sapiens, UniProt Q9H2X6); conditions: 2 h, kinase HIPK2; read-out: % Enzyme Activity (relative to DMSO controls)
T18 construct: purchased Reaction Biology Corporation (assay service)

[19] = molecular target: T19, panel of 370 protein kinases (Homo sapiens, UniProt Q9HC98); conditions: 2 h, kinase NEK6; read-out: % Enzyme Activity (relative to DMSO controls)
T19 construct: purchased Reaction Biology Corporation (assay service)

[20] = molecular target: T20, panel of 370 protein kinases (Homo sapiens, UniProt Q9NQU5); conditions: 2 h, kinase PAK6; read-out: % Enzyme Activity (relative to DMSO controls)
T20 construct: purchased Reaction Biology Corporation (assay service)

[21] = molecular target: T21, panel of 370 protein kinases (Homo sapiens, UniProt Q9UBS0); conditions: 2 h, kinase p70S6Kb/RPS6KB2; read-out: % Enzyme Activity (relative to DMSO controls)
T21 construct: purchased Reaction Biology Corporation (assay service)

T9 sequence (P50750 whole entry): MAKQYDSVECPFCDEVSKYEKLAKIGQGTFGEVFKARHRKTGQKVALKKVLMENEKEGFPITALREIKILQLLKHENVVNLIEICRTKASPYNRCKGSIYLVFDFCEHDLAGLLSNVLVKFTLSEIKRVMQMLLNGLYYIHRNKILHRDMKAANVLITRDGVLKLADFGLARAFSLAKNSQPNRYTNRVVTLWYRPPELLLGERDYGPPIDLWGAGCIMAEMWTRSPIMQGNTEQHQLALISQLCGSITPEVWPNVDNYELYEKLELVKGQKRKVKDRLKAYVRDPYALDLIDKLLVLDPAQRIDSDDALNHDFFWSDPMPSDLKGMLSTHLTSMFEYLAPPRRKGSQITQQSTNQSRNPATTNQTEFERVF
T15 sequence (Q16539 whole entry): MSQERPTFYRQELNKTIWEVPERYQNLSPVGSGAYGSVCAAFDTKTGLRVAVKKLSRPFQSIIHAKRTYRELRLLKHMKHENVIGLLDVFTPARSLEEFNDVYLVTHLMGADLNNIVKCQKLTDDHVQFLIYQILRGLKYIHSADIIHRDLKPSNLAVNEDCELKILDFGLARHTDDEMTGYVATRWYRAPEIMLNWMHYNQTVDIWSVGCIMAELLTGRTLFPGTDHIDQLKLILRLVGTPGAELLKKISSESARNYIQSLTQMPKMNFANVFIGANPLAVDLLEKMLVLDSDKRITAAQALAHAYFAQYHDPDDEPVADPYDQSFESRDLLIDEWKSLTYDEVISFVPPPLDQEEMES
T1 sequence (O14578 whole entry): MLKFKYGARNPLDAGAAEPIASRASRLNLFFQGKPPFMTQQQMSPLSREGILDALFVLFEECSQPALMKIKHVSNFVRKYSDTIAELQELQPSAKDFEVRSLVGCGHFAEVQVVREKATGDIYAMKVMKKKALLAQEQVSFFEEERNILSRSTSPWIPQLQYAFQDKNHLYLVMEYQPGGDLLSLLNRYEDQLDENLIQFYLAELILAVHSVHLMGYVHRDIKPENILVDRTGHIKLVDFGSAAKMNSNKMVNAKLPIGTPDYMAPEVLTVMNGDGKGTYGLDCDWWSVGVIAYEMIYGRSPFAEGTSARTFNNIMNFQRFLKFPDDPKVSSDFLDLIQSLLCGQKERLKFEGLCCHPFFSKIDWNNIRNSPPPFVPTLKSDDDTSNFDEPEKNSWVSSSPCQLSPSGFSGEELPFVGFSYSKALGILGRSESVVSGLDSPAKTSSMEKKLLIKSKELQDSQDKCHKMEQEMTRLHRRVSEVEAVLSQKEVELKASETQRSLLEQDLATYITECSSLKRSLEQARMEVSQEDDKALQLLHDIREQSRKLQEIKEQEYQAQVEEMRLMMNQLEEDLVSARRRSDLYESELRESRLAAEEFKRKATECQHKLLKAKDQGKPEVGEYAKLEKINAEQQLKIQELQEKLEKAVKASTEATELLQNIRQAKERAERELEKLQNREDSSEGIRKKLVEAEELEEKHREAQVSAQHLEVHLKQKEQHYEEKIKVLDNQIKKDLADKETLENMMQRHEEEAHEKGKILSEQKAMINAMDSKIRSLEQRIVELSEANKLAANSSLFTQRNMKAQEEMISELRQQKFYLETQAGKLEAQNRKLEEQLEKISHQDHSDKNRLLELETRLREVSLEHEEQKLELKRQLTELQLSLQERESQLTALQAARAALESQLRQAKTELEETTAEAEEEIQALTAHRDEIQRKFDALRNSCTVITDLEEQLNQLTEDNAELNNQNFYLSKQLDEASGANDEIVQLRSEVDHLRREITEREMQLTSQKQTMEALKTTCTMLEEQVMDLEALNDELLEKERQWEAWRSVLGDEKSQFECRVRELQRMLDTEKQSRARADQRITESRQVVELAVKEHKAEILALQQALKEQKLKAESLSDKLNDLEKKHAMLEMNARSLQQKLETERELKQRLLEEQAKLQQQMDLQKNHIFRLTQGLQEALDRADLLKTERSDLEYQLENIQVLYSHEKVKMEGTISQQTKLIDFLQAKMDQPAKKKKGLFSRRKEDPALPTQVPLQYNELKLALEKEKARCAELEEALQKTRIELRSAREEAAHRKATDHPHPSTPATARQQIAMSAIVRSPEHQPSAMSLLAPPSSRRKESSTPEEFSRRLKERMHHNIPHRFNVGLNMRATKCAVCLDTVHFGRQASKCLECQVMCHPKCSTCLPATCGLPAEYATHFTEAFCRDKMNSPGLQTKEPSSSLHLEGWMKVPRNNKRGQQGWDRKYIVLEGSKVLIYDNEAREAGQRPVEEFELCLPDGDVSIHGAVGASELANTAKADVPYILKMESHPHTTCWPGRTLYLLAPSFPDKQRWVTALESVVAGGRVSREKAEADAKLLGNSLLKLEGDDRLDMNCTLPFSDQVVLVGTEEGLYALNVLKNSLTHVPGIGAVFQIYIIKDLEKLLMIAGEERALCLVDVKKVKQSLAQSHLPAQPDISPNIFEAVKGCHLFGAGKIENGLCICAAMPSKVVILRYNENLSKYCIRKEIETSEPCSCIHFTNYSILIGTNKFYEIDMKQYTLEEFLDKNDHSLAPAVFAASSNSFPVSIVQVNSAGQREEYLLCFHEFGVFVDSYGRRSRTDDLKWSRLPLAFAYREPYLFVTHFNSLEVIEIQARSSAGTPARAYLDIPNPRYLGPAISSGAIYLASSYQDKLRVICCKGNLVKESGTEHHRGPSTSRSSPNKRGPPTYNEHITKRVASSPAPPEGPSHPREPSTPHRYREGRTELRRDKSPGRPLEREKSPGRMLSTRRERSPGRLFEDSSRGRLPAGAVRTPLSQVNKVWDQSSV
T17 sequence (Q9BWU1 whole entry): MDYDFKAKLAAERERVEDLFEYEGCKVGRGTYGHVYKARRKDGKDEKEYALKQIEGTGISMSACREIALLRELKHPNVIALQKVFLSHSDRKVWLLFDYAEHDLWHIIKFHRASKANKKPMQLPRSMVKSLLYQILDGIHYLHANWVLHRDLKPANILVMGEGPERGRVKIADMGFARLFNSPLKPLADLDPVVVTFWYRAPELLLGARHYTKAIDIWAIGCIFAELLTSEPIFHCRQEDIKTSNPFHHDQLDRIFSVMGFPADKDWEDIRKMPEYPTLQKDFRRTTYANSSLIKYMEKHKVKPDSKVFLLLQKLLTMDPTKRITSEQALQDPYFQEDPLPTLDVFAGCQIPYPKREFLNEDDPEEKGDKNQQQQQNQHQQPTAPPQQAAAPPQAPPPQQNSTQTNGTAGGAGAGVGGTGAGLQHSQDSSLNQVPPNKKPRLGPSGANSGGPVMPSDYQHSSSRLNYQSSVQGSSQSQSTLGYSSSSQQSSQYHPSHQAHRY
T10 sequence (P57078 whole entry): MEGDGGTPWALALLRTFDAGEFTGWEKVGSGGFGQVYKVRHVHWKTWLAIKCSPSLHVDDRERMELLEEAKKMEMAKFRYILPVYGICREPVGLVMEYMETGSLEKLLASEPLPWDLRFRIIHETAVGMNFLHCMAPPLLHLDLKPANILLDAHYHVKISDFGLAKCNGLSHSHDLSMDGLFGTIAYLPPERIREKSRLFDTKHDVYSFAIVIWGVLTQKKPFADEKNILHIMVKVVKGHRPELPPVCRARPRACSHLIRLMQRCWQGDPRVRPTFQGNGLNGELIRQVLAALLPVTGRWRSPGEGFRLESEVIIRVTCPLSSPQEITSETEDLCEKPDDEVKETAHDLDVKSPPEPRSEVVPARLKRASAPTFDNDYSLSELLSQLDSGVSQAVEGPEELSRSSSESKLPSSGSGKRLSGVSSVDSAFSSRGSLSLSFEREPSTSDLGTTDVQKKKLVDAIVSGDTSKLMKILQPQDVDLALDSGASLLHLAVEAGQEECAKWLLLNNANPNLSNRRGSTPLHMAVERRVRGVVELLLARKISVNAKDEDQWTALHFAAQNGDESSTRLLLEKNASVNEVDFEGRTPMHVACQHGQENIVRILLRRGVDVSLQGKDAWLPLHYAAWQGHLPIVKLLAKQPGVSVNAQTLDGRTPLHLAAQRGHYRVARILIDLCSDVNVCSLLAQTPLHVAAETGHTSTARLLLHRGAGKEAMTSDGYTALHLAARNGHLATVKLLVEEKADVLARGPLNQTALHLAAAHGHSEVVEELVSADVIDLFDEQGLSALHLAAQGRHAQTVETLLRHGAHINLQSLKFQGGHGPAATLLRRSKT
T19 sequence (Q9HC98 whole entry): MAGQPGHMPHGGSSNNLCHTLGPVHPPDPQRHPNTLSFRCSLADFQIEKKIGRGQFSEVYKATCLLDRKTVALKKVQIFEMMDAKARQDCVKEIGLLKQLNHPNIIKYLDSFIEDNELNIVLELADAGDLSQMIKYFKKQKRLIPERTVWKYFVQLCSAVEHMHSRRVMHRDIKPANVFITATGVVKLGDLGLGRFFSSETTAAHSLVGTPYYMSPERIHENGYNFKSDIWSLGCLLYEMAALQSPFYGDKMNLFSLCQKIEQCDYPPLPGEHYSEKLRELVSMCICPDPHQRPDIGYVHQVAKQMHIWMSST

Question: `CCN1CCN(C(=O)c2ccc(Nc3ncc(F)c(-c4ccc5nc(N(C)C)sc5c4)n3)nc2)CC1` [YK-2-69] was tested. Which “% Enzyme Activity (relative to DMSO controls)” value [1] did it give?
Answer: 95.11% and 94.67%

Question: What about the remaining activity at 1 µM [2] of the same compound?
Answer: 95.2%

Question: What about the remaining activity at 1 µM [3] of the same compound?
Answer: 97.6%

Question: And the remaining activity at 1 µM [4]?
Answer: 101%

Question: What about the remaining activity at 1 µM [5] of the same compound?
Answer: 104%

Question: And the remaining activity at 1 µM [6]?
Answer: 80%

Question: What about the remaining activity at 1 µM [7] of the same compound?
Answer: 75.2%

Question: And the remaining activity at 1 µM [8]?
Answer: 98%

Question: What about the remaining activity at 1 µM ([9]; kinase CDK9/CYCLIN K) of the same compound?
Answer: 96.3%

Question: What about the remaining activity at 1 µM ([9]; kinase CDK9/cyclin T1) of the same compound?
Answer: 90.8%

Question: What about the remaining activity at 1 µM ([9]; kinase CDK9/cyclin T2) of the same compound?
Answer: 96.8%

Question: What about the remaining activity at 1 µM [10] of the same compound?
Answer: 92%

Question: And the remaining activity at 1 µM [11]?
Answer: 89.3%

Question: And the remaining activity at 1 µM [12]?
Answer: 89.5%

Question: And the remaining activity at 1 µM [13]?
Answer: 70.9%

Question: What about the remaining activity at 1 µM [14] of the same compound?
Answer: 92.2%

Question: What about the “% Enzyme Activity (relative to DMSO controls)” value [15] of the same compound?
Answer: 99.00% and 95.59%

Question: And the remaining activity at 1 µM [16]?
Answer: 103%

Question: What about the “% Enzyme Activity (relative to DMSO controls)” value [17] of the same compound?
Answer: 59.42% and 58.05%

Question: What about the remaining activity at 1 µM [18] of the same compound?
Answer: 28.1%

Question: And the remaining activity at 1 µM [19]?
Answer: 103%

Question: And the remaining activity at 1 µM [20]?
Answer: 105%

Question: And the remaining activity at 1 µM [21]?
Answer: 99.4%
